Key:
Format in all cases: in vivo
[1] = test system: Western Flower Thrips (Frankliniella occidentalis); assay: Western flower thrips glass vial and leaf disc test; conditions: 300 ppm; larvae or adults; 2 DAT
Experimental: Serial dilutions of each technical grade AI were made in pure acetone. 0.5 ml of the treatment solution was deposited into the bottom of a glass vial (scintillation vial). The cap was screwed back onto the vial and inverted for about five seconds. The cap was subsequently removed and the vial laid on its side and rolled constantly, on a hot dog roller, until all the acetone had flashed off and the inner surface of the vial was dry. Cotton leave discs were also dipped simultaneously into the treatment solutions and allowed to dry. After the vials were dried, the leave discs were placed into the vials to serve as a food/water source for the thrips. Each treatment was replicated 5-fold. Western flower thrips were aspirated into the vials, approximately 5 larvae or adults/vial. Following treatment application the vials were held in a holding room under fluorescent light and constant 26° C. Thrips mortality was assessed at 2 DAT (days after treatment), counting all thrips both dead and alive.

[2] = test system: Acrobat Ant Workers (Crematogaster sp.); assay: Acrobat ant workers glass vial contact assay; conditions: 100 ppm; 48 h after treatment
Experimental: (§1) If not otherwise specified, the tests were conducted as glass vial contact assays. Glass vials (20 ml scintillation vials) were used. Treatment solutions were mixed with technical grade chemicals diluted in acetone. Treatment solutions needed for the assays included generally 1 and 10 ppm (0.01 and 0.1 μg/cm^2, respectively), but optionally also 100 and/or 1000 ppm for first tier vials. As commercial standard, alphacypermethrin was run at 1 ppm. As solvent control, acetone was used for the assay. Treatment solution was pipetted into the bottom of each vial. Each vial was turned on its side and placed onto a commercial grade hot dog roller without applying heat. The uncapped vials were allowed to roll to allow for the acetone treatment to vent off. After drying, the vials were placed into the compartmented vial shipping boxes. The workstation was prepared by chilling the table and plastic Petri dishes with the inside wall coated with Fluon. A weigh boat of 10% sugar water saturated cotton dental pellets was also prepared. The animal pests were collected into a tube with a rechargeable insect vacuum. The tube of animal pests was placed in a laboratory refrigerator until the animal pests were incapacitated. The animal pests were emptied into chilled Petri dish. A small cotton dental pellet was soaked in water or in 10 wt % sugar water, whereas the excess solution was gently squeezed out. […]

[3] = test system: Brown Dog Tick Adults (Rhipicephalus sanguineus); assay: Brown dog tick adults glass vial contact assay; conditions: 100 ppm; 3 DAT (days after treatment)
Experimental: as §1, with “incapacitated.” for “incapacitated. The animal pests were emptied into chilled Petri dish. A small cotton dental pellet was soaked in water or in 10 wt % sugar water, whereas the excess solution was gently squeezed out.”
Treatment solutions were mixed with test compound diluted in acetone at concentrations of 10 and 100 ppm. […] Ticks were evaluated by rolling the vials on a preheated hotdog roller. […]

Measured: mortality in comparison with untreated controls

Cc1cc(C2=NOC(c3cc(Cl)cc(Cl)c3)(C(F)(F)F)C2)ccc1C=NNC(=O)NCC(F)(F)F (stereo not drawn) [Compound 1-48]
at least 75%: all assays above
